According to patent publication US11773071B2, “Benzothiazepine compounds and their use as bile acid modulators” (Albireo AB, priority 2019, dated 2023):
pIC50: −log10 of the molar value.

What was measured:
[1] = Bidirectional permeability assay (Caco-2 cells); assay type: in vitro ADME; details: human, Caco-2, absorptive direction (A2B), 10 μM in FaSSIF buffer
Method: Bidirectional Permeability Assay (Caco-2 Cells)
Caco-2 cells (Evotec) were seeded at a density of 70,000 cells/well in Millicell® 24-well cell culture insert plates and maintained in an incubator (37° C., 5% CO2, 95% RH) for 21 days with media change on alternate days.
Stock solutions (10 mM) of the test compounds, atenolol (low permeability marker), propranolol (high permeability marker) and digoxin (substrate for P-gp transport pathway) were prepared in dimethylsulfoxide (DMSO). An intermediate stock solution (1 mM) was prepared by diluting 10 μL of 10 mM master stock solution with 90 μL of neat DMSO. A working stock solution (10 μM) was prepared by diluting 50 μL of 1 mM with 4950 μL of FaSSIF buffer. Post addition of compounds to the FaSSIF, samples were subjected to sonication for 2 hours, and centrifuged at 4000 RPM for 30 minutes at 37° C. The 4 mL of resultant supernatant was directly used in the assay. The final DMSO concentration in the transport experiments was 1%.
On the day of assay, Caco-2 monolayers were washed twice with transport buffer (HBSS, pH 7.4) and pre-incubated for 30 min (37° C., 5% CO2, 95% RH) in an incubator. The electrical resistance of the monolayers was measured with a Millicell®—ERS system. Monolayers with trans-epithelial electrical resistance (TEER) values greater than 350 ohm·cm^2 were selected for the assay.
The assay was conducted in absorptive direction (A2B) and secretory (B2A) directions. Transport experiments were initiated by addition of transport assay buffer (FaSSIF buffer prepared in HBSS) consisting of compounds to the donor compartment (apical chamber A-B; basolateral chamber B-A) in duplicate (n=2) wells. Drug free HBSS buffer (pH 7.4) containing 1% bovine serum albumin (BSA) was introduced to the receiver (A-B-basolateral; B-A-Apical) compartments. The volumes of apical and basolateral compartments were 0.4 and 0.8 mL, respectively. After adding dosing solution, plates were incubated in an incubator for 120 minutes at 37° C. After 120 minutes, donor and receiver samples were collected and matrix matched (1:1, 30 μL study sample+30 μL blank buffer) with the opposite buffer. Dosing samples matrix matched (1:1, 30 μL study sample+30 μL blank buffer) with the opposite buffer. Samples were processed by adding acetonitrile containing internal standard (60 μL study sample+200 μL acetonitrile containing internal standard—Tolbutamide, 500 ng/mL). Samples were vortexed and centrifuged at 4000 rpm for 10 minutes. The obtained supernatant (100 μL) was diluted with 100 μL of water and transferred to fresh 96 well plates. The concentration of compounds in the samples was analyzed by liquid chromatography tandem mass spectrometry (LC-MS/MS) method using discovery grade bio-analytical method, as applicable.
The mean apparent permeability (Papp,×10^−6 cm/sec) of the test compounds, atenolol, propranolol and digoxin were calculated as follows:
[formula] where dq/dt=rate of transport (rate of transport of compound in the receiver compartment), C0=initial concentration in the donor compartment, A=surface area of the effective filter membrane.

Human IBAT = biological target: T1, Human IBAT (Homo sapiens, UniProt Q12908); experiment: IBAT (h/m) assay, human IBAT-overexpressing cells, 3H-taurocholic acid uptake; assay type: cell-based; details: 0.25 μM 3H-taurocholic acid and 5 μM cold taurocholic acid, 20 minutes, read-out: hIBAT IC50
T1 construct: expressed in transfected cells; Puromycin-selected
T1 sequence (Q12908 1-348): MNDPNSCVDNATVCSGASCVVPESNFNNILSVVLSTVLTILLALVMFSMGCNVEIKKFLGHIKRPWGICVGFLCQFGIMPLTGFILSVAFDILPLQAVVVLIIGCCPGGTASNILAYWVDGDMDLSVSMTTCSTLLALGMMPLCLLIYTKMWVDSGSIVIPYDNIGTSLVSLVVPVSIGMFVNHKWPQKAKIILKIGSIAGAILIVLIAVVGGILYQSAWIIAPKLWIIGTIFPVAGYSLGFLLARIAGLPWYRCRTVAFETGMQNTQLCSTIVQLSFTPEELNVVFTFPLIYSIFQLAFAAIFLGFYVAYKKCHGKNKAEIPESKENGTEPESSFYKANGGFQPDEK
Summary of the method: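 Human or mouse IBAT-overexpressing cells, seeded 48 h before the assay, were incubated 20 min at 37 °C with 0.25 μM 3H-taurocholic acid plus 5 μM cold taurocholic acid and inhibitor (10-point 3-fold series from 10 μM top, 0.2% DMSO final), in duplicate. After ice stop and washes with 1 mM cold taurocholate, uptake was read by scintillation counting.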

Papp A→B at 120 min, 10 μM [1] [×10⁻⁶ cm/s]	pIC50 (Human IBAT)	Structure (SMILES)
3.4	8.22	CCCCC1(CC)CN(c2ccccc2)c2cc(Br)c(OCCC(=O)O)cc2S(=O)(=O)C1 (single isomer, unassigned) [Example 2, 3-((7-bromo-3-butyl-3-ethyl-1,1-dioxido-5-phenyl-2,3,4,5-tetrahydro-1,5-benzothiazepin-8-yl)oxy)propanoic acid]
9.7	7.49	CCCCC1(CCCC)CN(c2ccccc2)c2cc(SC)c(OCCC(=O)O)cc2S(=O)(=O)C1 [Example 15, 3-((3,3-dibutyl-7-(methylthio)-1,1-dioxido-5-phenyl-2,3,4,5-tetrahydro-1,5-benzothiazepin-8-yl)oxy)propanoic acid]
10.3	8.40	CCCCC1(CC)CN(c2ccccc2)c2cc(SC)c(OCCC(=O)O)cc2S(=O)(=O)C1 (single isomer, unassigned) [Example 13, 3-((3-butyl-3-ethyl-7-(methylthio)-1,1-dioxido-5-phenyl-2,3,4,5-tetrahydro-1,5-benzothiazepin-8-yl)oxy)propanoic acid]
22.5	8.15	CCCCC1(C)CN(c2ccccc2)c2cc(SC)c(OCCC(=O)O)cc2S(=O)(=O)C1 (single isomer, unassigned) [Example 24, 3-((3-butyl-3-methyl-7-(methylthio)-1,1-dioxido-5-phenyl-2,3,4,5-tetrahydro-1,5-benzothiazepin-8-yl)oxy)propanoic acid]
13.4	7.74	CCCCC1(CC)CN(c2ccccc2)c2cc(Br)c(OCCC(=O)O)cc2S(=O)(=O)C1 (racemic) [Example 1, 3-((7-Bromo-3-butyl-3-ethyl-1,1-dioxido-5-phenyl-2,3,4,5-tetrahydro-1,5-benzothiazepin-8-yl)oxy)propanoic acid]
13.6	7.77	CCCCC1(CC)CN(c2ccccc2)c2cc(Cl)c(OCCC(=O)O)cc2S(=O)(=O)C1 (single isomer, unassigned) [Example 6, 3-((3-butyl-7-chloro-3-ethyl-1,1-dioxido-5-phenyl-2,3,4,5-tetrahydro-1,5-benzothiazepin-8-yl)oxy)propanoic acid]
2.2	7.59	CCCCC1(CCCC)CN(c2ccccc2)c2cc(Br)c(OCCC(=O)O)cc2S(=O)(=O)C1 [Example 4, 3-((7-Bromo-3,3-dibutyl-1,1-dioxido-5-phenyl-2,3,4,5-tetrahydro-1,5-benzothiazepin-8-yl)oxy)propanoic acid]
9	7.66	CCCCC1(CC)CN(c2ccccc2)c2cc(Cl)c(OC(C)CC(=O)O)cc2S(=O)(=O)C1 (single isomer, unassigned) [30, diastereomer 1]

Further lines, the compound ahead of its results:

Structure (SMILES)	Papp A→B at 120 min, 10 μM [1] [×10⁻⁶ cm/s]	pIC50 (Human IBAT)
CCCCC1(CC)CN(c2ccccc2)c2cc(SC)c(OCC(C)(F)C(=O)O)cc2S(=O)(=O)C1 (stereo not shown) [Example 34, 3-((3-butyl-3-ethyl-7-(methylthio)-1,1-dioxido-5-phenyl-2,3,4,5-tetrahydro-1,5-benzothiazepin-8-yl)oxy)-2-fluoro-2-methylpropanoic acid]	5.4	7.92
CCCCC1(CC)CN(c2ccccc2)c2cc(SC)c(OCC(C)(O)C(=O)O)cc2S(=O)(=O)C1 (single isomer, unassigned) [48, diastereomer 2]	3.2	7.80
CCCCC1(C)CN(c2ccccc2)c2cc(SC)c(OCC(O)C(=O)O)cc2S(=O)(=O)C1 (single isomer, unassigned) [32, diastereomer 1]	3.3	8.52
CCCCC1(C)CN(c2ccccc2)c2cc(N(C)C)c(OCCC(=O)O)cc2S(=O)(=O)C1 (single isomer, unassigned) [29, enantiomer 1]	20.5	8.30
CCCCC1(CCCC)CN(c2ccccc2)c2cc(SC)c(OCC(O)C(=O)O)cc2S(=O)(=O)C1 (single isomer, unassigned) [Example 10, 3-((3,3-dibutyl-7-(methylthio)-1,1-dioxido-5-phenyl-2,3,4,5-tetrahydro-1,5-benzothiazepin-8-yl)oxy)-2-hydroxypropanoic acid]	2.1	9.00
CCCCC1(CC)CN(c2ccccc2)c2cc(SC)c(OCC(C)(F)C(=O)O)cc2S(=O)(=O)C1 (single isomer, unassigned) [35, diastereomer 1]	4	8.40
CCCCC1(CCCC)CN(c2ccccc2)c2cc(SC)c(OCC(O)C(=O)O)cc2S(=O)(=O)C1 (racemic) [Example 9, 3-((3,3-Dibutyl-7-(methylthio)-1,1-dioxido-5-phenyl-2,3,4,5-tetrahydro-1,5-benzothiazepin-8-yl)oxy)-2-hydroxypropanoic acid]	1.6	8.52
CCCCC1(CCCC)CN(c2ccccc2)c2cc(SC)c(OCC(O)C(=O)O)cc2S(=O)(=O)C1 (single isomer, unassigned) [Example 11, 3-((3,3-dibutyl-7-(methylthio)-1,1-dioxido-5-phenyl-2,3,4,5-tetrahydro-1,5-benzothiazepin-8-yl)oxy)-2-hydroxypropanoic acid]		8.40
